# What was measured:
# [1] = tested on: Trypanosoma cruzi; test: GSK_TCAKS: pIC50 Trypanosoma cruzi viability assay using beta-GAL activity. This assay was run at single shot at 5uM compound concentration per well. The biological reagents consisted of NIH-3T3 host cells and trypomastigotes parasitic cells; both cell types were set to a 3.3 * 10^5 cells/mL dilution in assay DMEM by means of a CASY cell counter device using a 60um capillary. 6 uL of the mixture were dispensed per well (about 1 * 10^3 host-cells and 1 * 10^3 parasites) with a Multidrop Combi dispenser. […] In all wells, the percentage of DMSO never exceeded 0.5%. Plates incubated for four days at 37C, 5% CO2. The substrate used for the assay fluorescence intensity (FLINT) readout was resorufin-beta-D-galactopiranoside (Sigma-Aldrich) at 5uM per well. It was diluted in PBS supplemented with the soft detergent Igepal (Fluka).; type: functional, organism-based, Mus musculus; settings: Tulahuen, NIH3T3
# [2] = tested on: Trypanosoma cruzi; test: (§1) GSK_TCAKS: pIC50 Trypanosoma cruzi Imaging: Infected Cells. […] Cells were then washed once with PBS before infection. T. cruzi trypomastigotes, collected at days 5 to 8 after infection from LLC-MK2 parasite infected cultures, were allowed to swim out for 4h at 37C from a centrifuged pellet (2,500 rpm/10 min/room temperature). Trypomastigotes were then collected and counted in a CASY Cell Counter. Trypomastigotes, in supplemented DMEM, were added to H9c2 cultures in a multiplicity of infection of 1 and incubated for 18 h. Cells were washed once with PBS before incubation of the infected H9c2 monolayer with trypsin (Life-Technologies) to detach cells from the flask. Cells were counted in a CASY Cell Counter using a 150 um capillary and their density set at 5 * 10^4 cells per mL in supplemented assay DMEM. Infected H9c2 were dispensed into 384-well poly-lysine coated assay plates at 50uL per well using a Multidrop Combi dispenser. After seeding them, the plates were incubated at 37C, 5% CO2 for 72h. Cultures were then fixed and stained by addition of 50 uL of a solution containing 8% formaldehyde and 4 uM DRAQ5 DNA dye (BioStatus, UK) per well. […] Five images were collected per well for reliable statistical analysis. Automated image analysis was performed with a script developed on Acapella High Content Imaging and Analysis Software (PerkinElmer). Output: percentage of infected cells per well as a second infection marker.; type: functional, organism-based, Rattus norvegicus; settings: H9c2, 4 h
# [3] = tested on: Trypanosoma cruzi; test: GSK_TCAKS: pIC50 Trypanosoma cruzi Imaging: Amastigotes/Cell. […] Cells were then washed once with PBS before infection. T. cruzi trypomastigotes, collected at days 5 to 8 after infection from LLC-MK2 parasite infected cultures, were allowed to swim out for 4h at 37C from a centrifuged pellet (2,500 rpm/10 min/room temperature). Trypomastigotes were then collected and counted in a CASY Cell Counter. Trypomastigotes, in supplemented DMEM, were added to H9c2 cultures in a multiplicity of infection of 1 and incubated for 18 h. Cells were washed once with PBS before incubation of the infected H9c2 monolayer with trypsin (Life-Technologies) to detach cells from the flask. Cells were counted in a CASY Cell Counter using a 150 um capillary and their density set at 5 * 10^4 cells per mL in supplemented assay DMEM. Infected H9c2 were dispensed into 384-well poly-lysine coated assay plates at 50uL per well using a Multidrop Combi dispenser. After seeding them, the plates were incubated at 37C, 5% CO2 for 72h. Cultures were then fixed and stained by addition of 50 uL of a solution containing 8% formaldehyde and 4 uM DRAQ5 DNA dye (BioStatus, UK) per well. […] Five images were collected per well for reliable statistical analysis. Automated image analysis was performed with a script developed on Acapella High Content Imaging and Analysis Software (PerkinElmer). Output: number of amastigotes per cell as infection level measurement.; type: functional, organism-based, Rattus norvegicus; settings: H9c2, 4 h
# [4] = tested on: Trypanosoma cruzi; test: as §1, with “H2C9” for “Trypanosoma cruzi”, “H9c2 Host Cardiomyocytes.” for “Infected Cells.”, “Number” for “percentage”, “H9c2 Host Cardiomyocytes nuclei to determine drug-related cytotoxicity.” for “infected cells per well as a second infection marker.”; type: functional, organism-based, Rattus norvegicus; settings: H9c2, 4 h
# [5] = tested on: Leishmania donovani; test: GSK_TCAKS: pIC50 Leishmania donovani viability assay using fluorescence intensity. Assay plates (1536-well) were prepared by adding 30nL per well of compound. For single shot assay, the final compound concentration was 5uM. […] Briefly, eGFP LdBOB axenic amastigotes were harvested, fixed and counted in a CASY cell counter (Roche-Applied Science). A final concentration of 1.5 * 10^5 cells per well were prepared in amastigote media containing 500 U/mL penicillin/streptomycin (Invitrogen) and 6uL was dispensed to each experimental well using a Multidrop Combi dispenser (Thermo Scientific). 6uL of assay media was dispensed to control columns used as reference for 100% compound response. Following incubation for 72 h at 37C, 5% CO2, 2 uL of resazurin was added to each well at a final concentration of 0.5 mM in phosphate buffered saline (PBS) with IGEPAL (Sigma-Aldrich), 0.05% (v/v).; type: functional, organism-based
# [6] = tested on: Leishmania donovani; test: (§2) GSK_TCAKS: pIC50 Leishmania donovani Imaging: Infected Macrophages. Assay plates (384-well) were prepared by adding 250nL of compound to each well. For single shot assay, the final compound concentration was 5 uM. […] Automated image analysis was performed with a script developed on Acapella High Content Imaging and Analysis Software (PerkinElmer). Output: Percent of infected macrophage cells were reported for each well.; type: functional, organism-based, Homo sapiens; settings: THP-1
# [7] = tested on: Leishmania donovani; test: as §2, with “Amastigotes/Macrophages.” for “Infected Macrophages.”, “Average number” for “Percent”, “amastigotes per” for “infected”, “cell” for “cells”; type: functional, organism-based, Homo sapiens; settings: THP-1
# [8] = tested on: Leishmania donovani; test: as §2, with “THP-1 Host” for “Infected”, “THP-1 cell count” for “Percent of infected macrophage cells”; type: functional, organism-based, Homo sapiens
# [9] = tested on: Trypanosoma brucei brucei; test: GSK_TCAKS: pIC50 Trypanosoma brucei viability assay using fluorescence intensity. Assay plates (1536-well) were prepared by dispensing 25nL of compound solution per well using an Echo acoustic dispenser (Labcyte).; type: functional, organism-based; settings: Lister 427, 2 h
# [10] = tested on: Trypanosoma brucei brucei; test: GSK_TCAKS: pIC50 Trypanosoma brucei viability assay using luminiscence. Assay plates (1536-well) were prepared. T. brucei cultures were harvested and counted in a CASY cell counter. A parasite suspension was prepared at a final concentration of 5 * 10^4 cells/mL in complete HMI9 medium and 6uL was dispensed to all wells containing compounds using a Multidrop Combi dispenser. 6uL of HMI9 media with 0.4% DMSO were dispensed to control columns. Plates were incubated for 24 h at 37C, 5% CO2 then tempered for 10 min at room temperature. ATP content was quantified by adding 4 uL of CellTiter-Glo Reagent (Promega) according to the manufacturer's instructions. Luminescence was measured using a ViewLux.; type: functional, organism-based; settings: Lister 427, CASY
# [11] = GSK_TCAKS: pIC50 HepG2 human cell line viability assay using luminiscence. […] Seeding density was checked to ensure that new mono-layers were not more than 50% confluent at the time of harvesting. Cell suspension was added to 500 mL of the same medium at a final density of 1.2 * 10^5 cells/mL. This cell suspension was dispensed (25 uL, 3000 cells per well) into 384-well clear-bottom plates using a Multidrop Combi dispenser. Prior to addition of the cell suspension, the screening compounds (250 nL) were pre-dispensed into the plates with an Echo liquid handler. Plates were incubated for 48 h at 37C, 5% CO2. After incubation, plates equilibrated at room temperature for 30 min before proceeding to develop the luminescent signal. The signal developer, CellTiter-Glo Reagent, was allowed to equilibrate at room temperature for 30 min and added to the plates (25uL per well) using a Multidrop Combi dispenser. Plates were left for 10 min at room temperature for stabilization and then read using a ViewLux.; type: toxicity, cell-based
# [12] = tested on: NIH3T3; test: GSK_TCAKS: pIC50 NIH 3T3 cell line viability assay using luminiscence. Tissue culture surface treated assay plates (1536-well) were used. […] The 100% cells survival control was determined exposing the host-cells to a 0.5% DMSO concentration, whereas the 100% toxicity control was achieved by seeding the cells in presence of Amphotericin B at 50uM. Plates were incubated for four days at 37C, 5% CO2. The assay readout was developed by addition of 5uL of CellTiter-Glo Reagent following the manufacturer's instructions. Luminiscence was measured using a ViewLux.; type: functional, cell-based; settings: Mus musculus, NIH3T3, 96 h
# [13] = target: Sterol 14-alpha demethylase (Trypanosoma cruzi (strain CL Brener), UniProt Q7Z1V1); test: GSK_TCAKS: pIC50 CYP51 from Trypanosoma cruzi.; type: functional
# Sequence of Sterol 14-alpha demethylase (Q7Z1V1 whole entry): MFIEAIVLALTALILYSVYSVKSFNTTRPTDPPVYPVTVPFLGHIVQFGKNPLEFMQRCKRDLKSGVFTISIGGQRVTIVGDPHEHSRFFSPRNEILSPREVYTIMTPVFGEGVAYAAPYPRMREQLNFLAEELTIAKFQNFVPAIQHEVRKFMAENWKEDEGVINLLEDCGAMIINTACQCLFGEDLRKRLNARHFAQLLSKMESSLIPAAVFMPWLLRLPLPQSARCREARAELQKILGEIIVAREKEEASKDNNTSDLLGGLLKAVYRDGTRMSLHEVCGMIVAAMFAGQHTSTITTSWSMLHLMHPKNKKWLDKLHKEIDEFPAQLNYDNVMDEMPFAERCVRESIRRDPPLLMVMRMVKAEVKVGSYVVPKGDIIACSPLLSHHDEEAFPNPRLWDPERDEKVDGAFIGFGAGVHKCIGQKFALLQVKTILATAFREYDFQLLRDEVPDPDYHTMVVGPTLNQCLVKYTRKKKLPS
Compound,IC50 [1],IC50 [2],IC50 [3],IC50 [4],IC50 [5],IC50 [6],IC50 [7],IC50 [8],IC50 [9],IC50 [10],IC50 at 48 h [11],IC50 [12],IC50 [13]
COc1cccc(-c2cc(C(F)(F)F)nc(-n3ccc([N+](=O)[O-])n3)n2)c1,0.398 µM,0.398 µM,0.2 µM,> 50.1 µM,> 50.1 µM,> 50.1 µM,> 50.1 µM,> 50.1 µM,31.6 µM,> 39.8 µM,> 100 µM,> 50.1 µM,> 100 µM
COc1ccc(S(=O)(=O)NC(C)C)cc1Nc1ncc(-c2cccc(F)c2)cn1,0.631 µM,0.398 µM,0.316 µM,> 50.1 µM,6.31 µM,> 50.1 µM,> 50.1 µM,> 50.1 µM,20 µM,> 39.8 µM,> 100 µM,5.01 µM,> 100 µM
O=C(C1CCCCC1)N1CCN(c2nnc(-c3ccccc3)c3ccccc23)CC1,1 µM,0.631 µM,0.398 µM,> 50.1 µM,> 50.1 µM,> 50.1 µM,20 µM,50.1 µM,10 µM,> 39.8 µM,> 100 µM,> 50.1 µM,> 100 µM
CC(C)(C)C(O)(CCc1ccc(Cl)cc1)Cn1cncn1 (stereo not given) [TEBUCONAZOLE],0.126 µM,0.251 µM,0.2 µM,> 50.1 µM,3.16 µM,> 50.1 µM,> 50.1 µM,> 50.1 µM,> 39.8 µM,> 39.8 µM,> 100 µM,> 50.1 µM,0.126 µM
O=c1[nH]cnc2c([C@@H]3O[C@H](CO)[C@@H](O)[C@H]3O)n[nH]c12 [FORMYCIN B],0.141 µM,0.501 µM,0.316 µM,> 50.1 µM,0.398 µM,2 µM,0.398 µM,> 50.1 µM,0.00316 µM,0.00501 µM,> 100 µM,> 50.1 µM,> 100 µM
c1ccc(CCNCc2cncc3nc(-c4cnccn4)n(C4CCCCC4)c23)cc1,0.316 µM,0.126 µM,0.126 µM,> 50.1 µM,> 50.1 µM,> 50.1 µM,> 50.1 µM,> 50.1 µM,31.6 µM,> 39.8 µM,> 100 µM,6.31 µM,0.1 µM
O=C(Nc1nc(-c2ccc(S(=O)(=O)N3CCOCC3)cc2)cs1)c1ccc([N+](=O)[O-])cc1,1 µM,1.58 µM,0.501 µM,> 50.1 µM,> 50.1 µM,> 50.1 µM,2.51 µM,3.98 µM,3.98 µM,10 µM,> 100 µM,25.1 µM,> 100 µM
O=C(NC1C(=O)N(c2ccccc2)C1c1cccnc1)c1ccc(Cl)s1 (stereo not given),0.0316 µM,0.0501 µM,0.0398 µM,> 50.1 µM,1 µM,> 50.1 µM,0.794 µM,> 50.1 µM,> 39.8 µM,> 39.8 µM,> 100 µM,> 50.1 µM,0.2 µM
O=C(CSc1ccc(-c2ccccn2)nn1)Nc1ccc(Cl)cc1,2.51 µM,2.51 µM,2 µM,> 50.1 µM,> 50.1 µM,> 50.1 µM,> 50.1 µM,> 50.1 µM,10 µM,> 39.8 µM,> 100 µM,31.6 µM,> 100 µM
Cn1nc([N+](=O)[O-])nc1N1CCCCC1,1.26 µM,12.6 µM,1 µM,> 50.1 µM,> 50.1 µM,> 50.1 µM,> 50.1 µM,> 50.1 µM,> 39.8 µM,> 39.8 µM,> 100 µM,> 50.1 µM,> 100 µM
COc1ccc(NS(=O)(=O)c2cc(NC(=O)Cc3ccc(C)cc3)ccc2N2CCOCC2)cc1,2 µM,5.01 µM,2.51 µM,> 50.1 µM,39.8 µM,> 50.1 µM,> 50.1 µM,> 50.1 µM,5.01 µM,7.94 µM,> 100 µM,25.1 µM,> 100 µM
O=[N+]([O-])c1cccc(Nc2cncc(-c3ccccc3CO)c2)c1,0.316 µM,0.398 µM,0.251 µM,> 50.1 µM,39.8 µM,> 50.1 µM,> 50.1 µM,> 50.1 µM,> 39.8 µM,> 39.8 µM,> 100 µM,39.8 µM,3.16 µM
N#Cc1ccc(S(=O)(=O)N2CCN(Cc3cccc(-c4ccncc4)c3)CC2)cc1,0.398 µM,0.251 µM,0.2 µM,25.1 µM,> 50.1 µM,> 50.1 µM,1.26 µM,> 50.1 µM,> 39.8 µM,20 µM,> 100 µM,12.6 µM,0.0794 µM
CNc1cc(Cn2c(C(=O)c3cc(C)cc(Cl)c3)c(C(C)C)c(=O)[nH]c2=O)ccn1,0.0398 µM,0.02 µM,0.02 µM,> 50.1 µM,> 50.1 µM,20 µM,12.6 µM,> 50.1 µM,25.1 µM,25.1 µM,> 100 µM,10 µM,0.0316 µM
CNc1c(C(N)=O)c(-c2ccc3scnc3c2)nn1CC(F)(F)F,0.126 µM,0.251 µM,0.158 µM,> 50.1 µM,> 50.1 µM,> 50.1 µM,> 50.1 µM,> 50.1 µM,31.6 µM,> 39.8 µM,> 100 µM,20 µM,> 100 µM
